Strand notation (5' to 3'): a small letter for the sugar, then the base; units joined by * are phosphorothioate-linked, units joined directly phosphodiester-linked; [ ] holds rarer units or linkages, { } end groups; capitals alone tell only the bases. k = constrained ethyl (cEt); [5mC] = 5-methylcytosine; d = 2'-deoxy (DNA)
Tested on: Yap1 mRNA
Experiment: Antisense inhibition of human Yap1 in A-431 cells by cEt gapmers, single dose (Example 3, RTS36584)
Format: cell-based
Details: Table 8; A-431 cells, 5,000 cells per well, free uptake, 2,000 nM, approximately 48 hours; RTS36584; normalized to RIBOGREEN; Yap1 mRNA relative to untreated control cells
Method in brief: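 Read-out is Yap1 mRNA as percent of untreated control, by quantitative RT-PCR normalized to total RNA (RiboGreen). Cells (A-431) received 2,000 nM of 3-10-3 cEt phosphorothioate gapmer via free uptake for roughly 48 hours.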

| Substance | YAP1 (% UTC) |
| --- | --- |
| 958406 (antisense kT*kT*kT*d[5mC]*dA*dG*dT*dT*dA*dT*d[5mC]*dG*dG*k[5mC]*k[5mC]*k[5mC]) [Compound 958406] | 29 |
| 958350 (kT*k[5mC]*k[5mC]*dG*dA*dG*dT*d[5mC]*d[5mC]*d[5mC]*d[5mC]*dG*d[5mC]*kG*kG*kA; antisense) [Compound 958350] | 106 |
| 958399 (antisense kG*kA*k[5mC]*d[5mC]*dA*dA*d[5mC]*dT*dA*d[5mC]*dT*dT*dG*kA*kA*kG) [Compound 958399] | 45 |
| 958376 (antisense k[5mC]*kT*kG*dG*dG*dA*dT*dT*dG*dA*dT*dA*dT*kT*k[5mC]*k[5mC]) [Compound 958376] | 31 |

Same assay, conditions: Table 9; A-431 cells, 5,000 cells per well, free uptake, 2,000 nM, approximately 48 hours; RTS36584; normalized to RIBOGREEN; Yap1 mRNA relative to untreated control cells

| Substance | YAP1 (% UTC) |
| --- | --- |
| 958536 (kA*kG*kG*dG*dT*d[5mC]*dA*dA*dT*dT*dT*dT*d[5mC]*kA*kG*k[5mC]; antisense) [Compound 958536] | 3 |
| 958711 (antisense k[5mC]*k[5mC]*kA*dA*dA*dT*dA*dA*dG*dG*dA*dT*d[5mC]*kT*kG*kT) [Compound 958711] | 34 |
| 958696 (antisense kG*k[5mC]*kA*dT*dA*d[5mC]*dT*dA*d[5mC]*dA*d[5mC]*dT*dA*kT*kA*kA) [Compound 958696] | 56 |
| 958736 (antisense kG*kT*kG*dA*dT*dA*dT*dG*dG*dA*dT*dT*d[5mC]*kT*kG*kT) [Compound 958736] | 3 |

Same assay, conditions: Table 10; A-431 cells, 5,000 cells per well, free uptake, 2,000 nM oligonucleotide, approx. 48 hours; primer probe set RTS36584; Yap1 mRNA normalized to RIBOGREEN, percent of untreated control

| Substance | YAP1 (% UTC) |
| --- | --- |
| 958722 (antisense k[5mC]*kA*kT*dA*dA*dT*dA*dG*dG*dA*d[5mC]*dA*d[5mC]*kA*kA*k[5mC]) [Compound 958722] | 59 |
| 958617 (antisense kG*kA*kG*dG*dT*dG*dG*dT*d[5mC]*dT*dT*dG*dT*kT*k[5mC]*kT) [Compound 958617] | 40 |
| 958587 (kG*kG*kT*dG*dA*d[5mC]*dT*dG*dA*dA*dA*d[5mC]*dT*k[5mC]*kT*kA; antisense) [Compound 958587] | 2 |
| 958592 (k[5mC]*kG*kT*dA*dA*dG*dA*dT*d[5mC]*dA*dA*dA*dG*k[5mC]*kA*k[5mC]; antisense) [Compound 958592] | 12 |

Same assay, conditions: Table 11; A-431 cells, 5,000 cells per well, free uptake, 2,000 nM oligonucleotide, approx. 48 hours; primer probe set RTS36584; Yap1 mRNA normalized to RIBOGREEN, percent of untreated control

| Substance | YAP1 (% UTC) |
| --- | --- |
| 958468 (antisense kT*kT*kG*dG*dT*dG*dG*d[5mC]*dA*dG*d[5mC]*d[5mC]*dA*kA*kA*kA) [Compound 958468] | 86 |
| 958733 (antisense kT*kA*kA*dT*dA*dG*dA*d[5mC]*dT*dA*dG*dA*d[5mC]*kT*kT*kA) [Compound 958733] | 67 |
| 958498 (kG*kA*kG*dT*dA*dT*dG*dT*dG*dG*d[5mC]*dA*dA*kT*kA*kA; antisense) [Compound 958498] | 1 |

Same assay, conditions: Table 12; A-431 cells, 5,000 cells per well, free uptake, 2,000 nM modified oligonucleotide, approx. 48 hours; RTS36584; normalized to RIBOGREEN; Yap1 mRNA relative to untreated control cells

| Substance | YAP1 (% UTC) |
| --- | --- |
| 958459 (antisense k[5mC]*kT*kG*dA*dA*dG*d[5mC]*d[5mC]*dG*dA*dG*dT*dT*k[5mC]*kA*kT) [Compound 958459] | 28 |
| 958554 (kA*kA*k[5mC]*d[5mC]*dA*dT*dT*dA*dT*dT*dA*d[5mC]*dT*k[5mC]*k[5mC]*kT; antisense) [Compound 958554] | 1 |
| 958579 (kA*kT*k[5mC]*dT*dT*dA*dA*dT*d[5mC]*dT*dG*dT*dG*kG*k[5mC]*kT; antisense) [Compound 958579] | 4 |
| 958784 (antisense kG*kG*k[5mC]*dT*dG*dG*dA*dT*dA*dG*dA*dA*dT*kG*k[5mC]*kT) [Compound 958784] | 79 |

Same assay, conditions: Table 13; A-431 cells, 5,000 cells per well, free uptake, 2,000 nM modified oligonucleotide, approx. 48 hours; RTS36584; normalized to RIBOGREEN; Yap1 mRNA relative to untreated control cells

| Substance | YAP1 (% UTC) |
| --- | --- |
| 958605 (antisense k[5mC]*kT*k[5mC]*dA*dG*dA*dT*dG*dT*dA*d[5mC]*d[5mC]*dA*kA*k[5mC]*kG) [Compound 958605] | 7 |
| 958795 (antisense kT*kA*kT*dT*d[5mC]*d[5mC]*dG*d[5mC]*dA*dT*dT*dG*d[5mC]*k[5mC]*kT*kA) [Compound 958795] | 8 |
| 958465 (antisense kG*kG*k[5mC]*dT*dT*d[5mC]*dA*dA*dG*dG*dT*dA*dG*kT*k[5mC]*kT) [Compound 958465] | 84 |
| 958550 (k[5mC]*k[5mC]*kT*dG*dT*dA*dG*dA*d[5mC]*dA*d[5mC]*dA*dT*kA*k[5mC]*kT; antisense) [Compound 958550] | 4 |

Same assay, conditions: Table 26; Yap1 mRNA by 3-10-3 cEt gapmers targeting SEQ ID NO.: 1, and 2; percent of untreated control

| Substance | YAP1 (% UTC) |
| --- | --- |
| 1075628 (antisense k[5mC]*k[5mC]*kG*d[5mC]*dA*dA*dA*dA*dT*dA*dT*dT*dA*kA*kT*kT) [compound 1075628] | 118 |
| 1076108 (kA*kA*kA*d[5mC]*dA*dA*dA*dA*d[5mC]*d[5mC]*dG*dG*d[5mC]*kT*kT*kT; antisense) [compound 1076108] | 116 |

Same assay, conditions: Table 27; Yap1 mRNA by 3-10-3 cEt gapmers targeting SEQ ID NO.: 1, and 2; percent of untreated control

| Substance | YAP1 (% UTC) |
| --- | --- |
| 1076045 (kG*kT*kG*d[5mC]*dA*dA*dT*dA*dA*dA*dT*dA*dG*kT*kT*k[5mC]; antisense) [compound 1076045] | 11 |
| 1075405 (antisense k[5mC]*kT*kA*dT*dA*dT*dA*dA*d[5mC]*d[5mC]*dT*dG*dA*kA*k[5mC]*kT) [compound 1075405] | 84 |
| 1074957 (antisense kA*kA*k[5mC]*d[5mC]*d[5mC]*dG*dG*dG*dT*dT*dT*dT*dT*kG*kT*k[5mC]) [compound 1074957] | 102 |

Same assay, conditions: Table 28; Yap1 mRNA as percent of untreated control; 3-10-3 cEt gapmers targeting SEQ ID NO.: 1, and 2

| Substance | YAP1 (% UTC) |
| --- | --- |
| 1074158 (kG*kA*kG*d[5mC]*dG*dA*dG*dG*dG*d[5mC]*dT*dA*d[5mC]*kG*k[5mC]*k[5mC]; antisense) [compound 1074158] | 72 |
| 1075630 (antisense kT*kA*kT*dA*dA*d[5mC]*d[5mC]*dA*dA*dA*dT*dG*d[5mC]*k[5mC]*kG*k[5mC]) [compound 1075630] | 60 |
| 1075438 (antisense k[5mC]*kA*kT*dA*dT*dT*dA*dG*dA*dG*dT*dT*dG*kA*kG*kG) [compound 1075438] | 22 |

Same assay, conditions: Table 29; Yap1 mRNA as percent of untreated control; 3-10-3 cEt gapmers targeting SEQ ID NO.: 1, and 2

| Substance | YAP1 (% UTC) |
| --- | --- |
| 1074799 (kT*kG*k[5mC]*dT*dT*dT*dG*dG*dA*dA*dG*dA*dT*k[5mC]*kT*kG) [compound 1074799] | 8 |
| 1074831 (k[5mC]*kG*kA*dG*dG*dA*dT*dA*dA*dA*dA*dT*d[5mC]*k[5mC]*kA*k[5mC]; antisense) [compound 1074831] | 35 |
| 1075567 (kG*kA*kT*dA*dT*dA*dT*dA*dA*d[5mC]*dA*dG*dG*k[5mC]*k[5mC]*kA; antisense) [compound 1075567] | 65 |

Same assay, conditions: Table 34; Yap1 mRNA as percent of untreated control; 3-10-3 cEt gapmers targeting SEQ ID NO: 1 and 2; single dose

| Substance | YAP1 (% UTC) |
| --- | --- |
| 1074324 (antisense kG*k[5mC]*kA*dG*dG*dG*d[5mC]*dT*dA*dA*d[5mC]*dT*d[5mC]*k[5mC]*kT*kG) [compound 1074324] | 116 |
| 1076148 (kT*kA*kT*dT*dA*dA*d[5mC]*dT*d[5mC]*dA*d[5mC]*dG*dA*kA*kG*kA; antisense) [compound 1076148] | 52 |
| 1075668 (antisense kA*kA*kT*dT*dA*dT*dT*dG*dG*dT*dG*dA*d[5mC]*kA*k[5mC]*kT) [compound 1075668] | 80 |

Same assay, conditions: Table 35; Yap1 mRNA as percent of untreated control; 3-10-3 cEt gapmers targeting SEQ ID NO: 1 and 2; single dose

| Substance | YAP1 (% UTC) |
| --- | --- |
| 1076245 (k[5mC]*k[5mC]*kT*dA*dA*dA*dA*dA*dA*d[5mC]*dT*dA*dG*kT*kG*kA; antisense) [compound 1076245] | 101 |
| 1076149 (kT*kT*kA*dT*dT*dA*dA*d[5mC]*dT*d[5mC]*dA*d[5mC]*dG*kA*kA*kG; antisense) [compound 1076149] | 24 |
| 1074645 (antisense kA*kA*kT*dT*dG*dA*dA*dG*dG*dG*d[5mC]*d[5mC]*dA*kA*kA*kA) [compound 1074645] | 81 |

— US11214803B2, “Modulators of YAP1 expression” (Ionis Pharmaceuticals, Inc., priority 2019, dated 2022)
